This assay has as its target T1, Coagulation factor XIII A chain (Homo sapiens, UniProt P00488).
T1 sequence (P00488 whole entry): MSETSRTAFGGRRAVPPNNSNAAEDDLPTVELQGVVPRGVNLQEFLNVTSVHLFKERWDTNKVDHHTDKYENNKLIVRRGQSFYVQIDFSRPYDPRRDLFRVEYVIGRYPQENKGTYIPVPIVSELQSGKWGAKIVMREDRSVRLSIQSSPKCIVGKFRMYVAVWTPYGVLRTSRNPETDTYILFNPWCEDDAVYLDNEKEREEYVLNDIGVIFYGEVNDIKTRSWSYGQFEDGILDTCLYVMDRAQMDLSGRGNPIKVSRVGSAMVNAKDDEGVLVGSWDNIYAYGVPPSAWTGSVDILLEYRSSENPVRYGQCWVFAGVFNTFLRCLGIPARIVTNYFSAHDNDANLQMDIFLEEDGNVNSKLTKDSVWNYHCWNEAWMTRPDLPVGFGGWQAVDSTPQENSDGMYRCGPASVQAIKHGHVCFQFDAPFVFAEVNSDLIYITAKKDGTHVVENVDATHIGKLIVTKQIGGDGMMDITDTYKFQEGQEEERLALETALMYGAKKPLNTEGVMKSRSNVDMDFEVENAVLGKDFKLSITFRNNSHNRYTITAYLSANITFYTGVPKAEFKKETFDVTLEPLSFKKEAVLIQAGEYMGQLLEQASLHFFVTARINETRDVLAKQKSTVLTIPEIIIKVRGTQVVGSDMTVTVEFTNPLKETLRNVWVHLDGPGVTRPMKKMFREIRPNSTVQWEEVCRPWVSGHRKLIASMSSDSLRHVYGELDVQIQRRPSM
Kind of assay: All measurements were performed in triplicate.

Where a SMILES comes first, the peptide text is derived from it. [ ]: non-standard residue; d: D form. The star is where a group is joined. ξ: configuration not given here. Nle(5E-ene,6-CO2Et) = CCOC(=O)/C=C/CC[C@H](N)C(=O)O; Oic(3aξ,7aξ) = O=C(O)[C@@H]1CC2CCCCC2N1; Cbz = O=C(OCc1ccccc1)*

By IC50 is commonly meant the midpoint of a concentration-inhibition curve. Low readings indicate higher potency, high ones lower potency.

Turning to `CCOC(=O)/C=C/CC[C@H](NC(=O)OCc1ccccc1)C(=O)N[C@H](C(=O)N1C2CCCCC2C[C@H]1C(=O)N[C@@H](CC(C)C)C(N)=O)C(C)C` (stereo partly drawn) (Cbz-[Nle(5E-ene,6-CO2Et)]V[Oic(3aξ,7aξ)]L-NH2), the IC50 is above 10 µM.
